Reference: patent US8802597B2, “Herbicidal pyrimidines” (E I du Pont de Nemours and Company, priority 2003, dated 2014)
Where two headings read alike, the source gives them in different places.

What was measured:
[1] = tested on: crabgrass (Digitaria sanguinalis); experiment: Test C pre/postemergence; assay type: in vivo; conditions: Digitaria sanguinalis; for pest or weed control at 62 g/ha: 62 g ai/ha; for pest or weed control at 125 g/ha: 125 g ai/ha; for pest or weed control at 250 g/ha: 250 g ai/ha; for pest or weed control at 500 g/ha: 500 g ai/ha
In short: (§1)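 Test compounds, formulated in a non-phytotoxic solvent mix with surfactant, were applied to freshly planted seeds and, at the same time, to emerged plants at 1- to 4-leaf stage (2 to 18 cm). After 12 to 14 days in the greenhouse, response was scored visually versus controls, 0 = no effect, 100 = complete control.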

[2] = tested on: yellow nutsedge (Cyperus esculentus); experiment: Test C pre/postemergence; assay type: in vivo; conditions: Cyperus; for pest or weed control at 62 g/ha: 62 g ai/ha; for pest or weed control at 125 g/ha: 125 g ai/ha; for pest or weed control at 250 g/ha: 250 g ai/ha; for pest or weed control at 500 g/ha: 500 g ai/ha
In short: as §1

soybean (Glycine max) = experiment: Test C pre/postemergence; assay type: in vivo; conditions: Glycine max; for plant injury at 62 g/ha: 62 g ai/ha; for plant injury at 125 g/ha: 125 g ai/ha; for plant injury at 250 g/ha: 250 g ai/ha; for plant injury at 500 g/ha: 500 g ai/ha
In short: as §1

[3] = tested on: duck salad (Heteranthera limosa); experiment: Test C flooded paddy test; assay type: in vivo; conditions: Flood, scale 0 to 100
In short: (§2)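 Visual rating, 0 (no effect) to 100 (complete control), versus untreated plants. Flooded paddy; 2-leaf stage at treatment; greenhouse hold 12–14 d. Dash = no test result.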

[4] = tested on: umbrella sedge (Cyperus difformis); experiment: Test C flooded paddy test; assay type: in vivo; conditions: Flood, scale 0 to 100
In short: as §2

[5] = tested on: barnyardgrass (Echinochloa crus-galli); experiment: Test C flooded paddy test; assay type: in vivo; conditions: Flood
In short: as §2

rice (Oryza sativa) = experiment: Test C flooded paddy test; assay type: in vivo; conditions: Flood, scale 0 to 100
In short: as §2

[6] = post-emergence, Postemergence, scale 0 to 100 (0 no effect, 100 complete control), read-out: Crabgrass plant response rating
[7] = post-emergence, Postemergence, scale 0 to 100, read-out: Plant response rating, Crabgrass
[8] = pre-emergence, Preemergence, scale 0 to 100, 0 no effect, 100 complete control, read-out: Plant response rating, Crabgrass
[9] = pre-emergence, Preemergence, scale 0 to 100, read-out: Plant response rating, Crabgrass
[10] = post-emergence, Postemergence, scale 0 to 100 (0 no effect, 100 complete control), read-out: Nutsedge, Yellow plant response rating
[11] = post-emergence, Postemergence, scale 0 to 100, read-out: Plant response rating, Nutsedge, Yellow
[12] = pre-emergence, Preemergence, scale 0 to 100, 0 no effect, 100 complete control, read-out: Plant response rating, Nutsedge, Yellow
[13] = pre-emergence, Preemergence, scale 0 to 100, read-out: Plant response rating, Nutsedge, Yellow
[14] = post-emergence, Postemergence, scale 0 to 100 (0 no effect, 100 complete control), read-out: Soybean plant response rating
[15] = post-emergence, Postemergence, scale 0 to 100, read-out: Plant response rating, Soybean
[16] = pre-emergence, Preemergence, scale 0 to 100, 0 no effect, 100 complete control, read-out: Plant response rating, Soybean
[17] = pre-emergence, Preemergence, scale 0 to 100, read-out: Plant response rating, Soybean
[18] = 500 g ai/ha, scale 0 to 100 (0 no effect, 100 complete control)

Nc1nc(C2CC2)nc(C(=O)OCc2ccccc2)c1Br [Compound 22, phenylmethyl 6-amino-5-bromo-2-cyclopropyl-4-pyrimidinecarboxylate]
pest or weed control at 62 g/ha [1, 6]: 50% | pest or weed control at 125 g/ha [1, 6]: 55% | pest or weed control at 250 g/ha [1, 7]: 85% | pest or weed control at 500 g/ha [1, 7]: 85% | pest or weed control at 62 g/ha [1, 8]: 90% | pest or weed control at 125 g/ha [1, 9]: 95% | pest or weed control at 250 g/ha [1, 9]: 95% | pest or weed control at 500 g/ha [1, 9]: 100% | pest or weed control at 62 g/ha [2, 10]: 0% | pest or weed control at 125 g/ha [2, 10]: 0% | pest or weed control at 250 g/ha [2, 11]: 0% | pest or weed control at 500 g/ha [2, 11]: 0% | pest or weed control at 62 g/ha [2, 12]: 0% | pest or weed control at 125 g/ha [2, 13]: 0% | pest or weed control at 250 g/ha [2, 13]: 95% | pest or weed control at 500 g/ha [2, 13]: 95% | plant injury at 62 g/ha (soybean (Glycine max); [14]): 95% | plant injury at 125 g/ha (soybean (Glycine max); [14]): 100% | plant injury at 250 g/ha (soybean (Glycine max); [15]): 100% | plant injury at 500 g/ha (soybean (Glycine max); [15]): 100% | plant injury at 62 g/ha (soybean (Glycine max); [16]): 95% | plant injury at 125 g/ha (soybean (Glycine max); [17]): 95% | plant injury at 250 g/ha (soybean (Glycine max); [17]): 100% | plant injury at 500 g/ha (soybean (Glycine max); [17]): 100% | Plant response rating, Ducksalad ([3]; 62 g ai/ha): 30 | Plant response rating, Ducksalad ([3]; 125 g ai/ha): 60 | Plant response rating, Ducksalad ([3]; 250 g ai/ha): 90 | Plant response rating, Ducksalad ([3]; 500 g ai/ha): 95 | Plant response rating, Sedge, Umbrella ([4]; 62 g ai/ha): 0 | Plant response rating, Sedge, Umbrella ([4]; 125 g ai/ha): 30 | Plant response rating, Sedge, Umbrella ([4]; 250 g ai/ha): 75 | Plant response rating, Sedge, Umbrella ([4]; 500 g ai/ha): 95 | Plant response rating, Barnyardgrass ([5]; 62 g ai/ha, scale 0 to 100): 0 | Plant response rating, Barnyardgrass ([5]; 125 g ai/ha, scale 0 to 100): 0 | Plant response rating, Barnyardgrass ([5]; 250 g ai/ha, scale 0 to 100): 40 | Plant response rating, Barnyardgrass [5, 18]: 70 | Plant response rating, Rice (rice (Oryza sativa); 62 g ai/ha): 20 | Plant response rating, Rice (rice (Oryza sativa); 125 g ai/ha): 20 | Plant response rating, Rice (rice (Oryza sativa); 250 g ai/ha): 40 | Plant response rating, Rice (rice (Oryza sativa); 500 g ai/ha): 60 | melting point: 129 to 131 °C

CCOC(=O)c1nc(C2CC2)nc(N)c1Br [Compound 1, ethyl 6-amino-5-bromo-2-cyclopropyl-4-pyrimidinecarboxylate]
pest or weed control at 62 g/ha [1, 6]: 30% | pest or weed control at 125 g/ha [1, 6]: 85% | pest or weed control at 250 g/ha [1, 7]: 85% | pest or weed control at 500 g/ha [1, 7]: 90% | pest or weed control at 62 g/ha [1, 8]: 10% | pest or weed control at 125 g/ha [1, 9]: 60% | pest or weed control at 250 g/ha [1, 9]: 90% | pest or weed control at 500 g/ha [1, 9]: 95% | pest or weed control at 62 g/ha [2, 10]: 0% | pest or weed control at 125 g/ha [2, 10]: 0% | pest or weed control at 250 g/ha [2, 11]: 5% | pest or weed control at 500 g/ha [2, 11]: 5% | pest or weed control at 62 g/ha [2, 12]: 0% | pest or weed control at 125 g/ha [2, 13]: 0% | pest or weed control at 250 g/ha [2, 13]: 50% | pest or weed control at 500 g/ha [2, 13]: 50% | plant injury at 62 g/ha (soybean (Glycine max); [14]): 100% | plant injury at 125 g/ha (soybean (Glycine max); [14]): 100% | plant injury at 250 g/ha (soybean (Glycine max); [15]): 100% | plant injury at 500 g/ha (soybean (Glycine max); [15]): 100% | plant injury at 62 g/ha (soybean (Glycine max); [16]): 85% | plant injury at 125 g/ha (soybean (Glycine max); [17]): 100% | plant injury at 250 g/ha (soybean (Glycine max); [17]): 100% | plant injury at 500 g/ha (soybean (Glycine max); [17]): 100% | Plant response rating, Ducksalad ([3]; 62 g ai/ha): 0 | Plant response rating, Ducksalad ([3]; 250 g ai/ha): 0 | Plant response rating, Ducksalad ([3]; 500 g ai/ha): 0 | Plant response rating, Sedge, Umbrella ([4]; 62 g ai/ha): 0 | Plant response rating, Sedge, Umbrella ([4]; 250 g ai/ha): 0 | Plant response rating, Sedge, Umbrella ([4]; 500 g ai/ha): 0 | Plant response rating, Barnyardgrass ([5]; 62 g ai/ha, scale 0 to 100): 0 | Plant response rating, Barnyardgrass ([5]; 125 g ai/ha, scale 0 to 100): 0 | Plant response rating, Barnyardgrass ([5]; 250 g ai/ha, scale 0 to 100): 15 | Plant response rating, Barnyardgrass [5, 18]: 25 | Plant response rating, Rice (rice (Oryza sativa); 62 g ai/ha): 0 | Plant response rating, Rice (rice (Oryza sativa); 125 g ai/ha): 0 | Plant response rating, Rice (rice (Oryza sativa); 250 g ai/ha): 0 | Plant response rating, Rice (rice (Oryza sativa); 500 g ai/ha): 0 | melting point: 107 to 108 °C
